In patent US20130197088A1, “Compositions and Methods for Combinations of Oligoamines with 2-Difluoromethylornithine (DFMO)” (priority 2010, published 2013):
“Also recorded” adds a separate entry of the source.

Tests used:
[1] = target: T1, ODC (Homo sapiens, UniProt P11926); conditions: concentrations from 0.6 μM to 80 μM; cited from earlier work
T1 sequence (P11926 1-461): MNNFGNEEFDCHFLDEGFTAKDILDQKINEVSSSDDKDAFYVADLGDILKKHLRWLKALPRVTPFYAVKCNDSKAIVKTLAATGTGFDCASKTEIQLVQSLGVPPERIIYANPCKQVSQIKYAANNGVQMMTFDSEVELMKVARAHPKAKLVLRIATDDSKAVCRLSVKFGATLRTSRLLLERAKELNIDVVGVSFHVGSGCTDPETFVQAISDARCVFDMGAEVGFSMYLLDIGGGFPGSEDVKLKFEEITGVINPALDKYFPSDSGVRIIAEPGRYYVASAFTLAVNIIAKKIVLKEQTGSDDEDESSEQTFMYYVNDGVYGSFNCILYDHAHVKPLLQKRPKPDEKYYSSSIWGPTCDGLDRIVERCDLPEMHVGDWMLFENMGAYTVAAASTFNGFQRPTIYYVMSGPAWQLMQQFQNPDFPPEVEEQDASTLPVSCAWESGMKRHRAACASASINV

[2] = system: HCT116 cells; test: Intracellular polyamine pools by high pressure liquid chromatography after DFMO / PG-11144 treatment; assay type: cell-based, human
Description: DFMO (2- or α-difluoromethylornithine) can be obtained from Merrell Dow Pharmaceutical Inc. (Cincinnati, Ohio). Polyamine analogues are provided by Progen Pharmaceuticals Ltd. (Queensland, Australia). Stock solutions of each compound are diluted with medium to the desired concentrations for specific experiments. HCT116 colorectal carcinoma cells are maintained in McCoy's 5A medium supplemented with 9% FBS (Atlanta Biologicals, Lawrenceville, Ga.) and 1% penicillin/streptomycin (Mediatech, Manassas, Va.), and grown at 37° C. in 5% CO2 atmosphere. For experiments, HCT116 cells are first treated for 24 hours with 5 mM DFMO followed by another 24 hours treatment of replenished 5 mM DFMO and polyamine analogues in the indicated doses alone or simultaneously. Intracellular polyamine concentrations are determined by high pressure liquid chromatography.
A mixture of both D-enantiomer of DFMO and L-enantiomer of DFMO is used to generate data in Table 1.

[3] = system: HCT116 human colon tumors; test: Established tumors in nude mouse model; assay type: in vivo; conditions: PG-11144 alone, nude mice
[4] = system: H3K4me2 at the promoter of SFRP2 in HCT116 cells; test: ChIP analysis of H3K4me2 at the SFRP2 promoter; assay type: cell-based, human; conditions: 2.5 μM PG-11144 alone
Description: HCT116 cells are first treated for 24 hours with 5 mM DFMO followed by another 24 hours treatment of replenished 5 mM DFMO and 2.5 μM PG-11144 alone or simultaneously. Chromatin immunoprecipitation (CHIP) analysis is performed using EZ-chip kit (Millipore). In brief, cells are exposed to 1% formaldehyde to cross-link proteins, and two million cells are used for each CHIP assay. Antibodies against H3K4me2, and for control, H3 are used as indicated for immunoprecipitation of protein-DNA complexes. Quantitative ChIP is performed using qPCR on the MyiQ single color real-time PCR machine. The PCR primer sets used for amplification of precipitated SFRP2 promoter fragments are as follows: sense, 5′ CTCCCTCCCAGCCTGCCCATCTT (SEQ ID NO: 3); antisense, 5′ ACTGCCCACCATTTCCCCGTTTTG (SEQ ID NO: 4) (annealing at 61° C.). The relative enrichment of H3K4me2 for control samples is set to a value of 1.
Chromatin Immunoprecipitation (ChIP): CHIP analysis is performed using EZ-chip kit (Millipore) according to the manufacturer's instruction. In brief, cells are exposed to 1% formaldehyde to cross-link proteins, and two million cells are used for each CHIP assay. Antibody against H3 can be obtained from Abeam (Cambridge, Mass.) and antibody against H3K4me2 can be obtained from Millipore. Quantitative ChIP is performed using qPCR on the MyiQ single color real-time PCR machine. […]

[5] = system: SFRP2 in HCT116 cells; test: Re-expression of aberrantly silenced SFRP2, qPCR; assay type: cell-based, human
Description: HCT116 cells are first treated for 24 hour with 5 mM DFMO followed by another 24 hour treatment of replenished 5 mM DFMO and oligoamines (PG-11144 and PG-11150 for panel A, PG-11157, PG 11158 and PG-11159 for panel B) alone or simultaneously. RNA is extracted using TRIzol reagents and first-strand cDNA is synthesized using M-MLV reverse transcriptase with an oligo(dT) primer (Invitrogen). qPCR for SFRP2 is performed in a MyiQ single color real-time PCR machine with GAPDH as an internal control. The SFRP2 primers used for qPCR are: sense, 5′ AAGCCTGCAAAAATAAAAATGATG (SEQ ID NO: 1); antisense, 5′ TGTAAATGGTCTTGCTCTTGGTCT (SEQ ID NO: 2) (annealing at 53° C.). The quantified results are the mean of triplicate treatments. The transcript level for control samples was set to a value of 1. S.D. is indicated by the error bars.
HCT116 cells are first treated for 24 hours with 5 mM DFMO followed by another 24 hours treatment of replenished 5 mM DFMO and PG-11144 in the indicated doses alone or simultaneously. RNA isolation and qPCR are performed. The quantified results are the means of triplicate treatments with S.D. as indicated. The transcript level for control samples is set to a value of 1.
RNA Isolation and qPCR: RNA is extracted using TRIzol reagents (Invitrogen, Carlsbad, Calif.). First-strand cDNA is synthesized using M-MLV reverse transcriptase with an oligo(dT) primer (Invitrogen). qPCR is performed in a MyiQ single color real-time PCR machine (Bio-Rad, Hercules, Calif.) with GAPDH as an internal control. The SFRP2 primers used are: sense, 5′ AAGCCTGCAAAAATAAAAATGATG (SEQ ID NO: 1); antisense, 5′ TGTAAATGGTCTTGCTCTTGGTCT (SEQ ID NO: 2) (annealing at 53° C.).

[6] = target: T1, ODC; test: Inhibition of ODC activity by DFMO enantiomers; assay type: biochemical
Description: The use of D-DFMO or enriched D-isomer mixtures can overcome many of the problems associated with the use of racemic (50/50) D,L-DFMO. D-DFMO or enriched D-DFMO isomer mixtures may be administered at a dosage higher than a racemic mixture, due to lower anticipated toxicity associated with the D enantiomer. In three separate studies using concentrations from 0.6 μM to 80 μM D-, L-, and D,L-DFMO, the effective concentration level of each which inhibits 50% of the ODC activity (Ki) can be determined. Both enantiomers, as well as the racemic mixture, were inhibitory.

[7] = guinea pigs; cited from earlier work
[8] = system: six human tumors (three mammary carcinomas, a malignant melanoma, a bladder carcinoma, an endocervical carcinoma); conditions: after DFMO treatment; cited from earlier work
[9] = system: colon adenomas and carcinomas; conditions: animal models of colon carcinogenesis; cited from earlier work
[10] = system: Egr1 and Oct4 genes in P19 embryonal carcinoma cells; conditions: cited from earlier work

Q: With NCCCC(N)(C(=O)O)C(F)F (racemic) [D,L-DFMO] as the compound, how does the “Inhibition of ODC activity” value [1] read?
A: inhibitory

Q: Which results are given for CCNCCCCNCCCCNCCCCNCCCCNCC=CCNCCCCNCCCCNCCCCNCCCCNCC (stereo in doubt) [PG-11144]?
A: Polyamines: Putresine ([2]; PG-11144 0.5 μM, 24 h): 4.7 nmol/mg Protein; Polyamines: Spermidine ([2]; PG-11144 0.5 μM, 24 h): 9.1 nmol/mg Protein; Polyamines: Spermine ([2]; PG-11144 0.5 μM, 24 h): 11.2 nmol/mg Protein; Polyamines: Putresine ([2]; PG-11144 1 μM, 24 h): 4.7 nmol/mg Protein; Polyamines: Spermidine ([2]; PG-11144 1 μM, 24 h): 8.4 nmol/mg Protein; Polyamines: Spermine ([2]; PG-11144 1 μM, 24 h): 10.1 nmol/mg Protein; Polyamines: Putresine ([2]; PG-11144 2.5 μM, 24 h): 3.8 nmol/mg Protein; Polyamines: Spermidine ([2]; PG-11144 2.5 μM, 24 h): 5.6 nmol/mg Protein; Polyamines: Spermine ([2]; PG-11144 2.5 μM, 24 h): 6.2 nmol/mg Protein; Polyamines: Putresine ([2]; PG-11144 5 μM, 24 h): 0.0 nmol/mg Protein; Polyamines: Spermidine ([2]; PG-11144 5 μM, 24 h): 4.2 nmol/mg Protein; Polyamines: Spermine ([2]; PG-11144 5 μM, 24 h): 4.9 nmol/mg Protein; Polyamines: Putresine ([2]; PG-11144 10 μM, 24 h): 0.0 nmol/mg Protein; Polyamines: Spermidine ([2]; PG-11144 10 μM, 24 h): 4.1 nmol/mg Protein; Polyamines: Spermine ([2]; PG-11144 10 μM, 24 h): 6.4 nmol/mg Protein; Antitumor activity on established tumors [3]: effective in treating established tumors; also recorded: effective in shrinking established HCT116 human colon tumors; Promoter H3K4me2 levels (SFRP2 promoter, ChIP) [4]: does not lead to; SFRP2 expression ([5]; 2.5 μM PG-11144 alone): does not lead to increased SFRP2 expression; SFRP2 re-expression, synergy with DFMO (dose response) ([5]; 5 μM PG-11144 with 5 mM DFMO): greatest synergy with DFMO; SFRP2 expression (dose response) ([5]; PG-11144 concentrations higher than 5 μM with 5 mM DFMO): less SFRP2 expression

Q: With NCCC[C@@](N)(C(=O)O)C(F)F [D-DFMO] as the compound, how does the “Ki of D-DFMO relative to the L-form” value [6] read?
A: four fold lower

Q: What about the “Ki of D-DFMO relative to the mixture” value [6] of the same compound?
A: 3 fold

Q: And the “Effect on auditory function (compound action potential, cochlear microphonic, cochlear potentials)” value [7]?
A: no significant effects

Q: And the “Inhibition of ODC activity” value [1]?
A: inhibitory

Q: What does the source list for NCCC[C@](N)(C(=O)O)C(F)F [DFMO, 2-difluoromethylornithine]?
A: Growth of human tumors compared to control mice [8]: significantly decreased; Polyamines: Putresine ([2]; DFMO 5 mM alone): 0.0 nmol/mg Protein; Polyamines: Spermidine ([2]; DFMO 5 mM alone): 0.0 nmol/mg Protein; Polyamines: Spermine ([2]; DFMO 5 mM alone): 13.9 nmol/mg Protein; Number and size of colon adenomas and carcinomas [9]: reduces the number and size of colon adenomas and carcinomas

Q: What does the source list for NCCC[C@](N)(C(=O)O)C(F)F [L-DFMO]?
A: Effect on auditory function (compound action potential, cochlear microphonic, cochlear potentials) [7]: significant disruption of normal cochlear potentials; Inhibition of ODC activity [1]: inhibitory

Q: For N[C@@H]1C[C@H]1c1ccccc1 [tranylcypromine, (1R,2S)-2-phenylcyclopropan-1-amine], which “Effect on Egr1 and Oct4 gene transcription” value [10] is on record?
A: transcriptional de-repression
